Reference: ChEMBL document CHEMBL1201862, “PubChem BioAssay data set” (2004)
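Dose response: 5 concentrations. Exposure: 48 h. Format: 96-well plates. Endpoint: linear interpolation; highest concentration if not reached. GI50 is the concentration that inhibits growth by half.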 Activity calls are given as the source filed them. No stated cut-off is given here; in the data, active = GI50 up to about 1.1 µM and inactive = higher.

What was measured:
Assay in all cases: NCI-60 cell line screen, 48 h
786-0 = tested on: 786-0
A549 = tested on: A549
EKVX = tested on: EKVX
HCC 2998 = tested on: HCC 2998
HCT-116 = tested on: HCT-116
HCT-15 = tested on: HCT-15
HL-60 = tested on: HL-60
HOP-92 = tested on: HOP-92
HT-29 = tested on: HT-29
K562 = tested on: K562
LOX IMVI = tested on: LOX IMVI
M14 = tested on: M14
NCI-H23 = tested on: NCI-H23
NCI-H522 = tested on: NCI-H522
SF-268 = tested on: SF-268
SF-539 = tested on: SF-539
SW-620 = tested on: SW-620
T47D = tested on: T47D
UACC-257 = tested on: UACC-257
NCI/ADR-RES = tested on: NCI/ADR-RES

SMILES	GI50 (786-0)	GI50 (A549)	GI50 (EKVX)	GI50 (HCC 2998)	GI50 (HCT-116)	GI50 (HCT-15)	GI50 (HL-60)	GI50 (HOP-92)	GI50 (HT-29)	GI50 (K562)	GI50 (LOX IMVI)	GI50 (M14)	GI50 (NCI-H23)	GI50 (NCI-H522)	GI50 (SF-268)	GI50 (SF-539)	GI50 (SW-620)	GI50 (T47D)	GI50 (UACC-257)	GI50 (NCI/ADR-RES)
COc1ccc2nc3cc([N+](=O)[O-])ccc3c(Nc3ccc(S(=O)(=O)N=C(N)N)cc3)c2c1	20.1 µM (inactive)	47 µM (inactive)	15.2 µM (inactive)	19 µM (inactive)	11.9 µM (inactive)	36.2 µM	11.9 µM (inactive)	11.5 µM (inactive)	22.1 µM (inactive)	18.3 µM (inactive)	28.4 µM (inactive)	30.5 µM (inactive)	26.8 µM (inactive)	18.8 µM (inactive)	28 µM (inactive)	24.1 µM (inactive)	36.8 µM (inactive)	9.91 µM (inactive)	51.2 µM (inactive)	
CN1C(=O)CC(c2cccc(C3CC(=O)N(C)C3=O)n2)C1=O (configuration not stated)	> 100 µM (inactive)	> 100 µM (inactive)	> 100 µM (inactive)	> 100 µM (inactive)	> 100 µM (inactive)	> 100 µM	> 100 µM (inactive)	> 100 µM (inactive)	> 100 µM (inactive)	> 100 µM (inactive)	> 100 µM (inactive)	> 100 µM (inactive)	> 100 µM (inactive)	> 100 µM (inactive)	> 100 µM (inactive)	> 100 µM (inactive)	> 100 µM (inactive)		> 100 µM (inactive)	
CCOC(=O)c1ccc(NC(=O)O/N=C(/Cl)CCl)cc1	> 100 µM (inactive)	37.1 µM (inactive)	23.5 µM (inactive)	> 10 µM (inactive)	50.1 µM (inactive)	5.57 µM	24.2 µM (inactive)		54.6 µM (inactive)	25.2 µM (inactive)	50.1 µM (inactive)		78.5 µM (inactive)		47.1 µM (inactive)	69 µM (inactive)	50.2 µM (inactive)	34.1 µM (inactive)	44.6 µM (inactive)	24.5 µM (inactive)
[O-][Cl+3]([O-])([O-])[O-].c1ccc(-c2csc3c4ccccc4c4ccccc4[n+]23)cc1	4.85 µM (inactive)	2.17 µM (inactive)	8.79 µM (inactive)	1.54 µM (inactive)	2.32 µM (inactive)	23.3 µM	1.91 µM (inactive)	4.41 µM (inactive)	4.15 µM (inactive)	0.708 µM (active)	4.58 µM (inactive)	9.48 µM (inactive)	0.553 µM (active)	1.67 µM (inactive)	2.34 µM (inactive)	3.25 µM (inactive)	3.5 µM (inactive)		1.08 µM (active)	
Cc1nc2ccc(S(=O)(=O)Nc3ccccc3Cl)cc2c(=O)n1NC(=O)CNc1ccccc1Cl	> 100 µM (inactive)	> 100 µM (inactive)	> 100 µM (inactive)	> 100 µM (inactive)	> 100 µM (inactive)	> 100 µM	> 100 µM (inactive)	> 100 µM (inactive)	> 100 µM (inactive)	> 100 µM (inactive)	> 100 µM (inactive)	> 100 µM (inactive)	> 100 µM (inactive)	> 100 µM (inactive)	> 100 µM (inactive)	> 100 µM (inactive)	> 100 µM (inactive)		> 100 µM (inactive)	> 100 µM (inactive)
CC1CN=C(N(C(=O)Nc2ccccc2)c2ccccc2)S1 (configuration not stated)	39.5 µM (inactive)	33.4 µM (inactive)	29 µM (inactive)	35.9 µM (inactive)	39.7 µM (inactive)	37.2 µM	20 µM (inactive)		17.9 µM (inactive)	43.9 µM (inactive)	18.8 µM (inactive)		35.4 µM (inactive)		20.6 µM (inactive)	> 10 µM (inactive)	41.5 µM (inactive)	24.9 µM (inactive)	17.1 µM (inactive)	22 µM (inactive)
C=C(C)C1C/C=C(/C)CCCC2(CCC3=C(CC(C(=C)C)C/C=C(/C)CCC3)O2)C(=O)C1 (configuration not stated)	> 100 µM (inactive)	> 100 µM (inactive)	> 100 µM (inactive)	> 100 µM (inactive)	54.7 µM (inactive)	> 100 µM	> 100 µM (inactive)	> 100 µM (inactive)	> 100 µM (inactive)	> 100 µM (inactive)	> 100 µM (inactive)	> 100 µM (inactive)	> 100 µM (inactive)	> 100 µM (inactive)	> 100 µM (inactive)	> 100 µM (inactive)	> 100 µM (inactive)		> 100 µM (inactive)	
C=C(C)[C@@H]1CC[C@]2(C(=O)O)CC[C@]3(C)[C@H](CCC4[C@@]5(C)CC[C@H](C(=O)/C=C/c6ccc(O)c(O)c6)C(C)(C)[C@@H]5CC[C@]43C)[C@@H]12 (some centres not stated)	4.35 µM (inactive)	2.58 µM (inactive)	8.55 µM (inactive)	1.88 µM (inactive)	2.77 µM (inactive)	3.31 µM	2.17 µM (inactive)			3.85 µM (inactive)	3.34 µM (inactive)	3.39 µM (inactive)	2.61 µM (inactive)		5.28 µM (inactive)	2.53 µM (inactive)		5.14 µM (inactive)	2.81 µM (inactive)	5.46 µM (inactive)
